Source: US20150275187A1, “FURFURAL-RESISTANT GENE AND FURFURAL-RESISTANT STRAINS COMPRISING THE SAME” (KOREA INSTITUTE OF SCIENCE AND TECHNOLOGY, priority 2014, published 2015)

Legend:
[1] = tested on: cg1310 (rolM, Maleylacetate reductase) mRNA; test: Microarray gene expression depending on furfural concentration; type: cell-based, Corynebacterium glutamicum; settings: against wild type in medium not containing furfural
Source text: As a result, among the genes, which are expected to have similarity, cg1310 (SEQ ID No.: 2) showing increased expression at microarray is selected as the target gene. And, information about the selected target gene, and expression level of the target gene depending on the furfural concentration in the medium, which is obtained by analyzing gene expression pattern thereof depending on the furfural concentration using microarray, are shown in the following Table 1.
As a result of analysis, compared with the medium not containing the furfural, the mRNA expression level of the target gene is increased in the medium containing the furfural, and the mRNA expression level of the target gene is further increased when the furfural concentration is increased from 6.5 mM to 13 mM.
(§1) DNA Microarray is used as a method for analyzing gene expression depending on the furfural stress.

[2] = tested on: Corynebacterium glutamicum ATCC 13032; test: Growth inhibitory effect of furfural in wild type strain; type: cell-based
Procedure: In order to develop a furfural-resistant strain, first of all, Corynebacterium glutamicum is selected as a wild type, and then, growth inhibitory effect of furfural at Corynebacterium glutamicum wild type strain (wild type), which is Corynebacterium glutamicum ATCC 13032, depending on concentration, and concentrations of furfural and furfuryl alcohol in a culture solution depending on cell growth are confirmed.
Specifically, as the culture solution, 2% glucose as a carbon source is added to a minimal medium, CGXII medium, and furfural of 6.5 mM, 13 mM and 20 mM are added thereto, respectively, to compare growth speed with the case not adding the furfural. At this time, the composition of the CGXII medium is 20 g/L (NH4)2504, 5 g/L Urea, 1 g/L KH2PO4, 1 g/L K2HPO4, 0.25 g/L MgSO4.7H2O, 42 g/L MOPS, 10 mg/L CaCl2, 0.2 mg/L Biotin, 0.03 g/L Protecatechuic acid, Trace metal (10 mg/L FeSO4.7H2O, 10 mg/L MnSO4.H2O, 1 mg/L ZnSO4.7H2O, 0.2 mg/L CuSO4.7H2O, 0.02 mg/L NiCl2.6H2O). Culture is conducted at 30° C. after inoculating the cells (initial OD600=1) into the culture solution 50 mL in a 250 mL Erlenmeyer flask.

[3] = tested on: cg3374 (cye1, Putative NADH-dependent flavin oxidoreductase) mRNA; test: Microarray gene expression depending on furfural concentration; type: cell-based, Corynebacterium glutamicum; settings: against wild type in medium not containing furfural
Source text: as §1
(§2) Specifically, among genes corresponding to the module classified at http://www.coryneregnet.de/ of entire genes, and genes, whose corresponding protein names contain at least one of transport, permease and pump, genes showing increased expression level at all furfural concentrations are selected, and then, genes showing about 10 folds or more increased expression level at least one concentration are selected. And, among the selected genes, existing genes, which are known to response to stress, are excluded by literature search, and cg0310 (SEQ ID No.: 3), cg1661 (SEQ ID No.: 1), cg3374 (SEQ ID No.: 4) and cg3399 (SEQ ID No.: 5) are selected as the target gene. These are catalase, efflux pump in the cell membrane, oxidoreductase and permease-type genes. Then, information of the target genes selected by microarray, and expression levels of the target genes depending on the furfural concentration in the medium, which are obtained by analyzing gene expression pattern thereof using microarray, are shown in the following Table 2.
(§3) The gene expression levels of the above Table 2 show the relative mRNA expression levels of the target genes of the wild type strain grown in the medium containing the furfural, against the wild type strain grown without stress in the medium not containing the furfural. As a result of analysis, compared with the medium not containing the furfural, the mRNA expression levels of each target gene are increased in the medium containing the furfural, and the mRNA expression levels of the target genes are further increased as the furfural concentration is increased.

[4] = tested on: cg3399 (Permease of the major facilitator superfamily) mRNA; test: as above; type: cell-based, Corynebacterium glutamicum; settings: against wild type in medium not containing furfural
Source text: as §1, §2, §3

[5] = tested on: cg1661 (Arsenite efflux pump ACR3 or related permease) mRNA; test: as above; type: cell-based, Corynebacterium glutamicum; settings: against wild type in medium not containing furfural
Source text: as §1, §2, §3

[6] = tested on: cg0310 (katA, catalase) mRNA; test: as above; type: cell-based, Corynebacterium glutamicum; settings: against wild type in medium not containing furfural
Source text: as §1, §2, §3

[7] = Furfural Conc. in Medium: 6.5 mM
[8] = Furfural Conc. in Medium: 13 mM
[9] = Furfural Conc. in Medium: 20 mM

Compound: O=Cc1ccco1 [furfural]
- Gene Expression Level (relative mRNA) cg1310 [1, 7]: 1.476
- Gene Expression Level (relative mRNA) cg1310 [1, 8]: 2.872
- Gene Expression Level (relative mRNA) cg1310 [1, 9]: 2.183
- growth reduction compared with the medium not containing the furfural ([2]; 6.5 mM furfural, CGXII medium with 2% glucose, 30° C.): ≥ 50%
- growth speed of the strain ([2]; furfural 6.5, 13 and 20 mM in CGXII medium): becomes slow as the furfural concentration in the medium is increased
- Gene Expression Level (relative mRNA) cg3374 [3, 7]: 1.461
- Gene Expression Level (relative mRNA) cg3374 [3, 8]: 3.219
- Gene Expression Level (relative mRNA) cg3374 [3, 9]: 29.016
- Gene Expression Level (relative mRNA) cg3399 [4, 7]: 4.485
- Gene Expression Level (relative mRNA) cg3399 [4, 8]: 6.529
- Gene Expression Level (relative mRNA) cg3399 [4, 9]: 15.694
- Gene Expression Level (relative mRNA) cg1661 [5, 7]: 7.240
- Gene Expression Level (relative mRNA) cg1661 [5, 8]: 3.071
- Gene Expression Level (relative mRNA) cg1661 [5, 9]: 13.186
- Gene Expression Level (relative mRNA) cg0310 [6, 7]: 3.219
- Gene Expression Level (relative mRNA) cg0310 [6, 8]: 3.443
- Gene Expression Level (relative mRNA) cg0310 [6, 9]: 10.956
